The source of these data is paper PMC8124774, “Tuning Anti-Biofilm Activity of Manganese(II) Complexes: Linking Biological Effectiveness of Heteroaromatic Complexes of Alcohol, Aldehyde, Ketone, and Carboxylic Acid with Structural Effects and Redox Activity” (International Journal of Molecular Sciences, 2021).

Assay [1] has as its system Pseudomonas aeruginosa PAO1. The experiment in a line: broth microdilution MIC, P. aeruginosa PAO1. The assay is classed as cell-based. The conditions noted are these: P. aeruginosa PAO1, planktonic cells. On the procedure: (§1) The antimicrobial activities of the heteroaromatic ligands, Mn(II) complexes, and commercially available drug streptomycin were tested against standard bacterial strains: Staphylococcus aureus ATCC 6538P, Escherichia coli ATCC 8739, Pseudomonas aeruginosa PAO1 (biofilm model strain), and Pseudomonas aeruginosa LES B58 (clinical isolate). The P. aeruginosa PAO1 and LES B58 isolates were derived from the International Pseudomonas aeruginosa Reference Panel (http://bccm.belspo.be/about-us/bccm-lmg, accessed on 30 March 2021).
(§2) All bacteria species were cultivated in trypticase soy broth (TSB) medium (Biocorp, Warsaw, Poland) for 18 h at 37 °C with shaking (160 rpm). Overnight cultures of bacteria were diluted 1:100 into fresh TSB medium and then placed in each of the 96 wells of a microtiter transparent plate (Greiner, Monroe, NC, USA). The manganese(II) complexes—[Mn-pyOH-SO4]n, Mn-imCHO-NO3, Mn-imCHO-Cl, Mn-dipyCO-NO3—and the ligands—pyOH, pyCOOH—were prepared by dissolving compounds in distilled water. […] The starting stock solution was of 2-mM concentration.
(§3) The quantitative assay of the antibacterial activity was performed by the broth microdilution method, in 96-well microtiter plates, in order to establish the minimum inhibitory concentration (MIC). To this purpose, serial two-fold dilutions of the compounds ranging between 1 and 0.0625 mM were made. The details of the experiment were presented in our previous paper.

Assay [2] has as its system Staphylococcus aureus ATCC 6538P. In words: broth microdilution MIC, S. aureus. In kind it is cell-based. How it is done:
as §1, §2, §3

Assay [3] concerns Escherichia coli ATCC 8739. The experiment in a line: broth microdilution MIC, E. coli. In kind it is cell-based. How it is done: as §1, §2, §3
In general terms: In broth dilution the organism is exposed to a series of concentrations in liquid medium.

For assay [4], the system named is Pseudomonas aeruginosa LES B58. The experiment in a line: broth microdilution MIC, P. aeruginosa LES B58. The assay is classed as cell-based. How it is done: as §1, §2, §3
Assay [5] concerns the target T1, catalase from the bovine liver (Bos taurus, UniProt P00432).
T1 construct: The catalase from the bovine liver solution; purchased Sigma–Aldrich; host or cells: bovine liver
T1 sequence (P00432 2-527 limits assumed): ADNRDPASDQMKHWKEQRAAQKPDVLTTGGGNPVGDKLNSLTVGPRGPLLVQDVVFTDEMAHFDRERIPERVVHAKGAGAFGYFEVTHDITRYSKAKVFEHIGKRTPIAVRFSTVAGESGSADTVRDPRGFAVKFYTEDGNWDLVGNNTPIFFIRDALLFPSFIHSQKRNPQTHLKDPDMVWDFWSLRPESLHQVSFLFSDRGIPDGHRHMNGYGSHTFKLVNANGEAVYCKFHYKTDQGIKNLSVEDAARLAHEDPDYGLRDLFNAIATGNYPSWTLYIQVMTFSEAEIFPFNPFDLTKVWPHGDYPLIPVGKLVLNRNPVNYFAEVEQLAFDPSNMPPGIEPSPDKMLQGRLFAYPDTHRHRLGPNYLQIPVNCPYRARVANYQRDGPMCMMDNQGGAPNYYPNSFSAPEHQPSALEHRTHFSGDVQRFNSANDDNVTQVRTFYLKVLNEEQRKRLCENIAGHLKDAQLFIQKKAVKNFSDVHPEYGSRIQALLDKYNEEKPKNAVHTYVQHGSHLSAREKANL
In words: catalase activity in the presence of the Mn(II) complexes (absorbance at 240 nm). In kind it is biochemical. The settings on record: 0.5 mM complex, vs catalase alone. On the procedure:
First, the complexes were incubated with the catalase in the presence of a phosphate buffer, and then hydrogen peroxide was added thereto. To study the effect of the manganese complexes on the activity of CAT, its performance, in the presence of similar concentrations of the Mn complexes (0.5 mM), was investigated. The percentage of absorbance reduction over time was recorded at 240 nm. The positive control was the catalase sample in the absence of the Mn(II) complex. Figure 12 illustrates the effect of the Mn(II) complexes on the catalase activity.
The effect of the manganese complexes on the activity of catalase (CAT) was determined using the spectrophotometric method. The decrease in absorbance due to hydrogen peroxide depletion was recorded at 240 nm by the V-780 UV-Vis/NIR spectrophotometer (Jasco, Easton, MD, USA). The tests were performed in a 50-mM potassium phosphate buffer (PBS) at 37 °C, pH = 7.0. The catalase from the bovine liver solution (Sigma–Aldrich, St. Louis, MO, USA, lyophilized powder, ≥10,000 units/mg protein) was prepared in the PBS buffer as an initial dilution of ~1000 units/mL at 37 °C. The hydrogen peroxide solution, approximately 0.03% (w/w), was prepared by dilution in the PBS buffer to achieve the absorbance close to 1 a.u, and the PBS was used as a blank. The manganese complexes were diluted in the PBS buffer to stock the concentration of 1 mM. The mixture of 500 µL of the hydrogen peroxide, 1 µL of the catalase (final 1U of catalase activity), and 500 µL of the manganese complexes, previously incubated in a water bath at 37 °C, was added to a quartz cuvette (10 mm, 1 mL), closed by a cover, and placed in the spectrophotometer. The absorbance readings were performed in 10-s intervals during the first minute of the incubation time at 37 °C. The results were presented as the dependence on the percentage of the absorbance reduction over time.

In assay [6] the test system is P. aeruginosa PAO1 biofilm. In words: biofilm formation, crystal violet staining assay. In kind it is cell-based, Pseudomonas aeruginosa. The conditions noted are these: for % Inhibit. Biofilm (0.25 mM) / % Inhibit. Biofilm (0.5 mM): P. aeruginosa PAO1, vs untreated control. On the procedure:
as §2
To evaluate the effect of the compounds on P. aeruginosa biofilm formation, a crystal violet staining assay was used, following previously described protocols. The concentration of the investigated compounds was in the range 0.0625–1 mM. The amount of biofilm formed was determined by measuring the absorbance at λ = 595 nm with the Infinite M200 PRO microplate reader (Tecan, Männedorf, Switzerland). The measurement results, expressed in absorbance units, were converted into percentages to allow the comparison of numerical data obtained in different experiments.

Assay [7] relates to primary human fibroblasts (VH10). The experiment in a line: cytotoxicity, MTT test. The conditions noted are these: VH10 cells, 24 h, 15–1000 µM. In kind it is cell-based. How it is done: Primary human fibroblasts (VH10) were cultured at 37 °C in a humidified 5% CO2 atmosphere in plastic dishes in Dulbecco’s modified eagle medium (DMEM) supplemented with 10% heat inactivated fetal calf serum, 2 mM of l-glutamine, and antibiotics (100 units/mL penicillin and 100 µg/mL streptomycin). Cytotoxic properties of manganese complexes were measured by EZcount^TM MTT cell assay kit (HiMedia Laboratories Pvt., Ltd., Mumbai, India) in accordance with the manufacturer’s instructions. Cells were seeded into a 96-well plate and incubated with manganese complexes in the concentration range of 15–1000 µM for 24 h at 37 °C in a humidified atmosphere of 5% CO2. After incubation, a solution of MTT (3-[4,5-dimethylthiazol-2-yl]-2, 5-diphenyl tetrazolium bromide) at a concentration (1 mg/mL) was added to each well. After incubation at 37 °C for 4 h, 100 µL of 0.04 M HCl in isopropanol was added to each well and mixed thoroughly to dissolve the dark blue crystals. The measurement of absorbance of the solution related to the number of live cells was conducted on a TECAN Spark Microplate Reader (TECAN, Männedorf, Switzerland) at 570 nm with a reference wavelength 600 nm. All samples were tested in three independent experiments. Results were normalized to the control.
Inhibitory concentrations (IC50) represent the concentrations of the tested samples required to inhibit 50% cell proliferation and were calculated from the mean values of data from wells.
On the technique in general: Tetrazolium assays rely on reduction of a dye to a coloured formazan, in cell work by metabolically active cells.

The test system of assay [8] is pyoverdine secretion by P. aeruginosa PAO1. The experiment in a line: pyoverdine production (spectrofluorometric). The assay is classed as cell-based, Pseudomonas aeruginosa. The conditions noted are these: 0.5 mM complexes, 24 h, vs negative control (TSB medium with inoculated bacteria).
Protocol: In the experiment the spectrofluorometric method was used, and data were expressed as the relative light units (RLU).
Pyoverdine determination was performer in TSB medium. Measurement of pyoverdine fluorescence was performed at the excitation wavelength λ = 398 nm and the emission wavelength λ = 455 nm as described previously [66]. Experiments were carried out in triplicate in 96-well black flat-bottomed microtiter plates (Greiner, Monroe, NC, USA) for 24 h in cell-free culture medium using an Infinite M200PRO (Tecan, Männedorf, Switzerland). The assay was performed with the series of Mn(II) complexes (0.5 mM) and streptomycin as a positive control, and TSB medium with inoculated bacteria as a negative control. The siderophore secretion assay was conducted as three independent repeats. The results obtained were not disturbed by the emission band characteristic of the Mn(II) complexes.
[9] abbreviates: P. aeruginosa LES B58, planktonic cells.
The mark [10] stands for this setting: Pseudomonas aeruginosa, read-out: MIC.
The mark [11] stands for this setting: Staphylococcus aureus, ATCC6538P, S. aureus, planktonic cells, read-out: MIC.
The mark [12] stands for this setting: Escherichia coli, ATCC8739, planktonic cells, read-out: MIC.
[13] abbreviates: Pseudomonas aeruginosa, LESB58, P. aeruginosa LES B58, planktonic cells, read-out: MIC.

Values joined by “and” are separate entries in the source; they are usually repeats but may differ in a detail not shown here. Identical values can stand only once. Like-named read-outs stand apart in the source and are kept apart here.

Consider `O.O.O.O.O=[N+]([O-])[O-].O=[N+]([O-])[O-].[Mn+2]` [Mn(NO3)2·4H2O], for which the MIC in assay [1] was > 1 mM and > 251 μg/ml; in assay [2] (S. aureus, planktonic cells), > 1 mM and > 251 μg/ml; in assay [3] (planktonic cells), > 1 mM and > 251 μg/ml; in assay [4] (setting [9]), > 1 mM and > 251 μg/ml.

Take `O=C(c1ccccn1)c1ccccn1.O=C(c1ccccn1)c1ccccn1.O=[N+]([O-])[O-].O=[N+]([O-])[O-].[Mn+2]` [Mn-dipyCO-NO3]: the “Action on catalase activity” value in assay [5] was “attenuate the catalase activity”. The MIC in assay [1] was > 1 mM and > 547 μg/ml; in assay [2] (S. aureus, planktonic cells) it was > 1 mM and > 547 μg/ml; in assay [3] (planktonic cells), > 1 mM and > 547 μg/ml; in assay [4] (setting [9]) it was > 1 mM and > 547 μg/ml. Besides, in assay [6], the “% Inhibit. Biofilm (0.25 mM)” value came to 21%. In addition, in assay [6], the “% Inhibit. Biofilm (0.5 mM)” value was 36%.

Consider `Cc1[nH]cnc1C=O.Cc1[nH]cnc1C=O.[Cl-].[Cl-].[Mn+2]` [Mn-imCHO-Cl], for which, in assay [5], the “Action on catalase activity” value is given as “attenuate the catalase activity”. The MIC is > 1 mM and > 346 μg/ml in assay [1]; > 1 mM and > 346 μg/ml in assay [2] (S. aureus, planktonic cells); > 1 mM and > 346 μg/ml in assay [3] (planktonic cells); > 1 mM and > 346 μg/ml in assay [4] (setting [9]). For the same molecule, in assay [6], the “% Inhibit. Biofilm (0.25 mM)” value is on record as 24%. For the same molecule, the “% Inhibit. Biofilm (0.5 mM)” value in assay [6] is listed as 29%. Moreover, the IC50 in assay [7] is > 1000 µM.

With `O.O.O.O.[Cl][Mn][Cl]` [MnCl2·4H2O], the MIC in assay [1] is > 1 mM and > 198 μg/ml; in assay [2] (S. aureus, planktonic cells) it was > 1 mM and > 198 μg/ml; in assay [3] (planktonic cells), > 1 mM and > 198 μg/ml; in assay [4] (setting [9]) it was > 1 mM and > 198 μg/ml.

Consider `O.O=S(=O)([O-])[O-].[Mn+2]` [MnSO4·H2O], for which the minimal inhibitory concentration (MIC) in assay [1] was > 1 mM and > 169 μg/ml; in assay [2] (S. aureus, planktonic cells), > 1 mM and > 169 μg/ml; in assay [3] (planktonic cells), > 1 mM and > 169 μg/ml; in assay [4] (setting [9]), > 1 mM and > 169 μg/ml.

As to `[H]/N=C(/N)N[C@H]1[C@H](O)[C@@H](O)[C@H](O[C@@H]2O[C@@H](C)[C@](O)(C=O)[C@H]2O[C@@H]2O[C@@H](CO)[C@H](O)[C@@H](O)[C@@H]2NC)[C@@H](N/C(N)=N\[H])[C@@H]1O` [Streptomycin, reference compound], the MIC in assay [1] (setting [10]) is 62.5 µM and 36 µg/mL; in assay [2] (Staphylococcus aureus, ATCC6538P) it was 125 µM; in assay [2] (setting [11]), 73 mg/L; in assay [3] (setting [12]), 62.5 µM and 36 µg/mL; in assay [4] (Pseudomonas aeruginosa, LESB58), 125 µM; in assay [4] (setting [13]) it was 73 mg/L. Also, the “decrease of pyoverdine production” value in assay [8] is given as 96%.

As to `O=C(c1ccccn1)c1ccccn1` [dipyCO, dipyridin-2-ylmethanone], the MIC in assay [1] (setting [10]) is > 1000 µM and > 184 µg/mL; in assay [2] (setting [11]), > 1000 µM and > 184 µg/mL; in assay [3] (setting [12]) it was > 1000 µM and > 184 µg/mL; in assay [4] (setting [13]), > 1000 µM and > 184 µg/mL. The molecule further registered an inhibition at 1000 µM in assay [6] (Pseudomonas aeruginosa, PAO1, 1 mM, P. aeruginosa biofilm) of 49%.

Consider `Cc1nc[nH]c1C=O` [imCHO, 5(4)-carbaldehyde-4(5)-methylimidazole], for which the MIC in assay [1] was > 1 mM and > 110 μg/ml; in assay [2] (S. aureus, planktonic cells), > 1 mM and > 110 μg/ml; in assay [3] (planktonic cells), > 1 mM and > 110 μg/ml; in assay [4] (setting [9]), > 1 mM and > 110 μg/ml.

`O=C(O)c1cccnc1C(=O)O` [pyCOOH, pyridine-2,3-dicarboxylic anion]: the MIC in assay [1] is > 1 mM and > 167 μg/ml; in assay [2] (S. aureus, planktonic cells), > 1 mM and > 167 μg/ml; in assay [3] (planktonic cells), > 1 mM and > 167 μg/ml; in assay [4] (setting [9]), > 1 mM and > 167 μg/ml.

With `OCc1ccccn1` [pyOH, 2-hydroxymethylpyridyne], the MIC was > 1 mM and > 109 μg/ml in assay [1]; > 1 mM and > 109 μg/ml in assay [2] (S. aureus, planktonic cells); > 1 mM and > 109 μg/ml in assay [3] (planktonic cells); > 1 mM and > 109 μg/ml in assay [4] (setting [9]).

As a reminder, the MIC is the smallest concentration in the dilution series that meets the test's criterion for growth inhibition. As a reminder, the IC50 is the concentration that inhibits the measured activity by half. A lower IC50 goes with inhibition by little substance. The inhibition is the relative decrease from the control value, in per cent. Read a low inhibition as a response near the control.
